# According to patent US20160039917A1, “Method for Treating Eclampsia and Preeclampsia” (VELO BIO, LLC, priority 2013, published 2016):
# Like-named read-outs stand apart in the source and are kept apart here.
# Tests used:
# [1] = tested on: human placental EDLF production (fetal tissues); assay: Placental explant culture (fetal side), EDLF released into media measured by Digibind RIA; format: cell-based; settings: for EDLF accumulation in culture: time course; for EDLF production: fetal tissues; for EDLF in the conditioned media, earlier time points / EDLF concentration in the conditioned media: 2 μM; for EDLF in the conditioned media, earlier time points: early time point experiment
# [2] = tested on: placental ROS release (lipid peroxides); settings: 48 hours
# Method: (§1) For these studies placentas from uncomplicated pregnancies were obtained immediately after delivery and 4-5 small tissue pieces (˜5 mm×5 mm×5 mm) were cut off from the inner fetal side. The tissue pieces were dissected into tiny pieces with sterilized scissors. Any visible clots and blood vessels were removed with sterilized tweezers. The remaining villi were washed repeatedly with PBS to remove blood from the intervillous space. Villous tissue of ˜5 mg/well was then patted dry by sterilized paper tower and incubated in a 6-well cell culture plate with 5 mL of serum-free DMEM (Gibson, Grand Island, N.Y., USA) containing 100 U/mL penicillin, 100 μg/mL streptomycin and 0.25 μg/mL amphotericin B (Sigma, St. Louis, Mo., USA) per well for 48 hours at 37° C. in an incubator gassed with 95% air and 5% CO2.
# (§2) Conditioned media from placental explants cultured with hydrogen peroxide or under low O2 conditions were collected and assayed by a Lipid Hydroperoxide (LPO) Assay Kit (Cayman Chemical, Ann Arbor, Mich., USA) and a human TNF-alpha Quantikine ELISA Kit (R&D Systems, Minneapolis, Minn., USA) following the manufacturers' methods to determine levels of lipid oxidation.
# placental TNFα release = settings: 48 hours
# Method: as §1, §2
# [3] = tested on: human placental EDLF production (maternal tissues); settings: 48 hours
# Method: Human placenta was dissected into fetal and maternal tissues. These were incubated in buffered culture media for 48 hours in the absence or presence of graded concentrations of ketoconazole. The culture media was collected and the amount of EDLF released from the tissue was measured using an RIA.
# At the end of incubation, samples of the culture medium were collected in 15 mL conical tubes and any residual villi were removed by centrifuging at 4000 RPM for 2 min. The supernatant was stored at −80° C. as conditioned medium until later processing and assay.
# After the homogenization and tissue culture processes, homogenate and conditioned media samples were collected and assayed by radioimmunoassay. Digibind (GlaxoSmithKline, Research Triangle Park, N.C., USA) was used as the primary antibody anti-EDLF/ouabain and a rabbit anti-sheep immunoglobulin (IgG) Fab fragment antibody (Jackson ImmunoResearch Laboratories, Inc., West Grove, Pa., USA) was used as the secondary antibody. […] Tritiated ouabain (30.0 Ci/mmol, Perkin Elmer, Boston, Mass., USA) was used as a tracer. Cold ouabain solutions at graded concentrations were used as standards. A 100 μL aliquot of specimen or standard ouabain solution (50 nM, 0.1 μM, 0.2 μM, 0.5 μM, 1 μM, 3 μM), plus 50 μL of a 2.22×10^-8 M tritiated ouabain solution, 300 μL of 1.8 μg/mL Digibind solution, 60 μL of 2.12×10^-7 M 2° Ab solution and 10 μL of 10 mM pH 7.4 Tris buffer were combined and mixed well, then allowed to incubate at room temperature overnight to allow antigen-antibody binding. For the assay of conditioned media, because samples contained DMEM medium, 100 μL of DMEM were added to the reaction solutions for each standard and 100 μL of deionized H2O were added to reaction solutions for specimens to bring them to the same volume. EDLF in the several conditioned media/homogenate specimens or standard cold ouabain in the calibrating solutions competed with the labeled ouabain for Digibind and then the secondary (2°) antibody was added to bind to the primary (1°) antibody-antigen complex to decrease its solubility. After the overnight incubation, 563 μL of 16% polyethylene glycol (PEG)-6000 (Calbiochem, La Jolla, Calif., USA) was added to each reaction solution to precipitate the antibody-antigen complex. After centrifugation at 13,200 rpm for 30 min, the supernatant was discarded and the pellet was resuspended in 500 μL of 0.05 M phosphate buffer (pH 7.0).
compound,measurement,setting,value
"CC(=O)[C@@]1(O)CC[C@H]2[C@@H]3CCC4=CC(=O)CC[C@]4(C)[C@H]3CC[C@@]21C [17P, 17α-hydroxyprogesterone]",EDLF released into the culture media,"[1]; 48 hours, 0.20 μM",3.60±1.06 ×10^−8 M ouabain equivalents
same,EDLF released into the culture media,"[1]; 48 hours, 0.50 μM",3.76±0.84 ×10^−8 M ouabain equivalents
same,EDLF released into the culture media,"[1]; 48 hours, 1.0 μM",4.40±1.12 ×10^−8 M ouabain equivalents
same,EDLF released into the culture media,"[1]; 48 hours, 2.0 μM",4.91±1.52 ×10^−8 M ouabain equivalents
same,EDLF accumulation in culture,"[1]; 2.0 μM, 6 hours",12.60±3.81 ×10^−8 M ouabain equivalents
same,EDLF accumulation in culture,"[1]; 2.0 μM, 12 hours",28.30±6.30 ×10^−8 M ouabain equivalents
same,EDLF accumulation in culture,"[1]; 2.0 μM, 24 hours",55.39±33.62 ×10^−8 M ouabain equivalents
same,EDLF accumulation in culture,"[1]; 2.0 μM, 36 hours",95.00±40.44 ×10^−8 M ouabain equivalents
same,EDLF accumulation in culture,"[1]; 2.0 μM, 48 hours",132.43±74.37 ×10^−8 M ouabain equivalents
"OO [H2O2, hydrogen peroxide]",released EDLF,"[1]; 48 hours, 5 nM",4.87±1.57 ×10^−8 M ouabain equivalents
same,EDLF levels in the media,"[1]; higher concentrations (10 nM, 20 nM)",equal or slightly lower than those treated with 5 nM H2O2
same,lipid peroxides,[2]; 1.0 nM,6.62 ± 3.31 µM
same,lipid peroxides,[2]; 5.0 nM,9.17 ± 3.18 µM
same,lipid peroxides,[2]; 10.0 nM,11.43 ± 3.67 µM
same,lipid peroxides,[2]; 20.0 nM,13.13 ± 5.04 µM
same,TNFα release,placental TNFα release; 1.0 nM,18.61 ± 13.60 pg/mL
same,TNFα release,placental TNFα release; 5.0 nM,14.95 ± 6.39 pg/mL
same,TNFα release,placental TNFα release; 10.0 nM,15.83 ± 6.63 pg/mL
same,TNFα release,placental TNFα release; 20.0 nM,13.50 ± 3.43 pg/mL
"CC(=O)[C@H]1CC[C@H]2[C@@H]3CCC4=CC(=O)CC[C@]4(C)[C@H]3CC[C@]12C [Progesterone, progesterone]",effect on EDLF production,[1]; placenta,little or no effect
CC(=O)N1CCN(c2ccc(OCC3COC(Cn4ccnc4)(c4ccc(Cl)cc4Cl)O3)cc2)CC1 (stereo not drawn) [ketoconazole],EDLF production,[3]; 1.0 μM,1.90±2.05 ×10^−8 M RIA ouabain equivalents
same,EDLF production,[3]; 2.0 μM,1.79±1.96 ×10^−8 M RIA ouabain equivalents
same,EDLF production,[3]; 5.0 μM,1.83±2.03 ×10^−8 M RIA ouabain equivalents
same,EDLF production,[3]; 10.0 μM,1.73±1.82 ×10^−8 M RIA ouabain equivalents
same,EDLF production,[3]; 20.0 μM,2.46±2.60 ×10^−8 M RIA ouabain equivalents
same,EDLF production,"[1]; 48 hours, 1.0 μM",7.99±13.21 ×10^−8 M RIA ouabain equivalents
same,EDLF production,"[1]; 48 hours, 2.0 μM",5.58±8.91 ×10^−8 M RIA ouabain equivalents
same,EDLF production,"[1]; 48 hours, 5.0 μM",1.60±1.62 ×10^−8 M RIA ouabain equivalents
same,EDLF production,"[1]; 48 hours, 10.0 μM",1.47±1.64 ×10^−8 M RIA ouabain equivalents
same,EDLF production,"[1]; 48 hours, 20.0 μM",1.25±1.43 ×10^−8 M RIA ouabain equivalents
CC(=O)[C@H]1CC[C@H]2[C@@H]3CC=C4C[C@@H](O)CC[C@]4(C)[C@H]3CC[C@]12C [pregnenolone],"EDLF in the conditioned media, earlier time points",[1]; 3 hours,77.4+25.0 ×10^−8 M
same,EDLF concentration in the conditioned media,[1]; 6 hours,325.6±61.0 ×10^−8 M
same,"EDLF in the conditioned media, earlier time points",[1]; 6 hours,76.8+35.0 ×10^−8 M ouabain equivalents
same,EDLF concentration in the conditioned media,[1]; 12 hours,136.1±27.7 ×10^−8 M
same,EDLF concentration in the conditioned media,[1]; 24 hours,148.4±15.1 ×10^−8 M
same,EDLF concentration in the conditioned media,[1]; 36 hours,113.6±14.4 ×10^−8 M
same,EDLF concentration in the conditioned media,[1]; 48 hours,48.5±7.4 ×10^−8 M
TNFα,EDLF released into the culture media,"[1]; 48 hours, 1.0 nM",2.41±0.80 ×10^−8M ouabain equivalents
same,EDLF released into the culture media,"[1]; 48 hours, 2.0 nM",2.75±0.98 ×10^−8M ouabain equivalents
same,EDLF released into the culture media,"[1]; 48 hours, 5.0 nM",2.76±0.80 ×10^−8M ouabain equivalents
same,EDLF released into the culture media,"[1]; 48 hours, 10.0 nM",3.51±0.69 ×10^−8M ouabain equivalents
same,EDLF released into the culture media,"[1]; 48 hours, 20.0 nM",4.47±0.99 ×10^−8M ouabain equivalents
